In patent publication US20240116948A1, “PYRIDO OXAZINE DERIVATIVES AS ALK5 INHIBITORS” (CHIESI FARMACEUTICI S.P.A., priority 2020, published 2024):
Like-named read-outs stand apart in the source and are kept apart here.

Target: human ALK5 (Homo sapiens (Human), UniProt P36897)
Assay: ADP-GLO Kinases assay, inhibition of ALK5 kinase activity
Type: biochemical
Experimental: The enzymatic activity of compounds of the present invention was monitored measuring the formation of ADP using the ADP-GLO Kinases assay. Following the incubation of the purified enzyme, a substrate and ATP, the produced ADP was converted into ATP, which in turn was converted into light by Ultra-Glo Luciferase. The luminescent signal positively correlated with ADP amount and kinase activity. Briefly, the kinase reaction was performed by incubating 2.6 nM of the purified, commercially available human ALK5 (recombinant TGF 31 N-term GST-tagged, 80-end), a final concentration of TGFβ1 peptide 94.5 μM (Promega, T36-58) and ultra-pure ATP (Promega V915B). The ATP concentration was set at the Km value (concentration of substrate which permits the enzyme to achieve half maximal velocity (Vmax)) of ALK5 (5 μM). All reactions/incubations were performed at 25° C. Compound and ALK5 kinase were mixed and incubated for 15 mins. Reactions were initiated by addition of ATP at a final concentration in the assay of […]. After an incubation of 150 min, the reaction was stopped, and ADP production detected with ADP-Glo kit according to manufacturer's indications. The assay was performed in 384-well format and was validated using a selection of reference compounds that was tested in 11 point concentration-response curve.
Compounds of the examples C1 and C2 were tested in the same in vitro assay described above.

[1] = Table 12, compounds classified in term of potency, ATP at Km, 25° C., read-out: ALK5 IC50

Sequence of human ALK5 (P36897 80-503 limits assumed): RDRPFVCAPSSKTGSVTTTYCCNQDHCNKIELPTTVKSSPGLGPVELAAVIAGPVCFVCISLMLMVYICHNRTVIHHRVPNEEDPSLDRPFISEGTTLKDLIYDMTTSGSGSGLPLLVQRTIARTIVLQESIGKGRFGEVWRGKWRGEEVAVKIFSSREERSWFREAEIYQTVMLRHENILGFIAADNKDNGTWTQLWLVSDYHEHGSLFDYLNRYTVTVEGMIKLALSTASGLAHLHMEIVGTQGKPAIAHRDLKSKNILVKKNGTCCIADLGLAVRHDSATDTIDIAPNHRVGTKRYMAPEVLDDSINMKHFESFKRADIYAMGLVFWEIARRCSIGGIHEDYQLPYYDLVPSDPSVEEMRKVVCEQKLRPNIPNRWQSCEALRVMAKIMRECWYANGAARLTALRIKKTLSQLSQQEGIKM

Row | SMILES | IC50 [1] [nM] | IC50 (Table 13, comparative examples, same in vitro assay, read-out: ALK5 IC50) [nM] | IC50 (summary statements in running text, read-out: IC50 / potency on ALK5) [nM]
1 | Fc1ccc(Cl)cc1-c1cc(-c2cnc3[nH]cnc3c2)c2c(n1)NCCO2 [Example 14, 6-(5-chloro-2-fluorophenyl)-8-{3H-imidazo[4,5-b]pyridin-6-yl}-2H,3H,4H-pyrido[3,2-b][1,4]oxazine] | 5 to 10 |  | 
2 | Cc1cccc(-c2cc(-c3cncc4ccccc34)c3c(n2)NCCO3)n1 [Example 3, 4-[6-(6-methylpyridin-2-yl)-2H,3H,4H-pyrido[3,2-b][1,4]oxazin-8-yl]isoquinoline] | 1 to 5 |  | 
3 | CN(C)CCCC(=O)Nc1cncc(-c2cc(-c3cc(Cl)ccc3F)nc3c2OCCN3)c1 [Example 17, N-{5-[6-(5-chloro-2-fluorophenyl)-2H,3H,4H-pyrido[3,2-b][1,4]oxazin-8-yl]pyridin-3-yl}-4-(dimethylamino)butanamide] | ≤ 1 |  | 
4 | Fc1ccc(Cl)cc1-c1cc(-c2cnc3[nH]ncc3c2)c2c(n1)NCCO2 [Example 10, 6-(5-chloro-2-fluorophenyl)-8-{1H-pyrazolo[3,4-b]pyridin-5-yl}-2H,3H,4H-pyrido[3,2-b][1,4]oxazine] | ≤ 1 |  | 
5 | CN(C)CC(=O)Nc1cncc(-c2cc(-c3cc(Cl)ccc3F)nc3c2OCCN3)c1 [Example 15, N-{5-[6-(5-chloro-2-fluorophenyl)-2H,3H,4H-pyrido[3,2-b][1,4]oxazin-8-yl]pyridin-3-yl}-2-(dimethylamino)acetamide] | 5 to 10 |  | 

Now from value to compound:

Row | IC50 [1] [nM] | IC50 (Table 13, comparative examples, same in vitro assay, read-out: ALK5 IC50) [nM] | IC50 (summary statements in running text, read-out: IC50 / potency on ALK5) [nM] | SMILES
6 | 1 to 5 |  |  | CNCCCNC(=O)c1cncc(-c2cc(-c3cc(Cl)ccc3F)nc3c2OCCN3)c1 [Example 32, 5-[6-(5-chloro-2-fluorophenyl)-2H,3H,4H-pyrido[3,2-b][1,4]oxazin-8-yl]-N-[3-(methylamino)propyl]pyridine-3-carboxamide]
7 | 1 to 5 |  |  | CN(C)CCCNc1cncc(-c2cc(-c3cc(Cl)ccc3F)nc3c2OCCN3)c1 [Example 30, 5-[6-(5-chloro-2-fluorophenyl)-2H,3H,4H-pyrido[3,2-b][1,4]oxazin-8-yl]-N-[3-(dimethylamino)propyl]pyridin-3-amine]
8 | 1 to 5 |  |  | O=C(OC1CC1)c1cncc(-c2cc(-c3cc(Cl)ccc3F)nc3c2OCCN3)c1 [Example 40, Cyclopropyl 5-[6-(5-chloro-2-fluorophenyl)-2H,3H,4H-pyrido[3,2-b][1,4]oxazin-8-yl]pyridine-3-carboxylate]
9 | 1 to 5 |  |  | CN(C)CCOC(=O)c1cncc(-c2cc(-c3cc(Cl)ccc3F)nc3c2OCCN3)c1 [Example 24, 2-(dimethylamino)ethyl 5-[6-(5-chloro-2-fluorophenyl)-2H,3H,4H-pyrido[3,2-b][1,4]oxazin-8-yl]pyridine-3-carboxylate]
10 | 5 to 10 |  |  | COC(=O)CN(C)CCC(=O)Nc1cncc(-c2cc(-c3cc(Cl)ccc3F)nc3c2OCCN3)c1 [Example 48, Methyl 2-{[2-({5-[6-(5-chloro-2-fluorophenyl)-2H,3H,4H-pyrido[3,2-b][1,4]oxazin-8-yl]pyridin-3-yl}carbamoyl)ethyl](methyl)amino}acetate]
11 |  | 10000 | > 1700 | COc1ccc(-c2cc(-c3cc(Cl)ccc3F)nc3c2OCCN3)cc1 [Example C1, 6-(5-chloro-2-fluorophenyl)-8-(4-methoxyphenyl)-2H,3H,4H-pyrido[3,2-b][1,4]oxazine]
12 | 5 to 10 |  |  | Cc1cccc(-c2cc(-c3cnc4[nH]ncc4c3)c3c(n2)NCCO3)n1 [Example 35, 2-methyl-6-(8-{1H-pyrazolo[3,4-b]pyridin-5-yl}-2H,3H,4H-pyrido[3,2-b][1,4]oxazin-6-yl)pyridine]
